From publication PMC7817688, “Identification of 3-chymotrypsin like protease (3CLPro) inhibitors as potential anti-SARS-CoV-2 agents” (Communications Biology, 2021)
Several values for one entry are separate records, joined by “and”; a condition that tells them apart may be missing. Identical values can stand only once.

Molecular target: SARS-CoV-2 3CLpro enzyme (Severe acute respiratory syndrome coronavirus 2, UniProt P0DTD1)
Test: biochemical
Details: for percent enzymatic activity, individual values / percent enzymatic activity, AVG / inhibition at 50 µM: 50 µM drug; for percent enzymatic activity, individual values / percent enzymatic activity, AVG: DMSO treated control = 100%, data of Figs. 2-4; for percent enzymatic activity, AVG: mean of 3 values; for IC50: drugs 0 to 100 µM, 50 µM substrate, non-linear four variable fit, read-out: IC50 for SARS-CoV-2 3CL protease; for inhibitory effect towards 3CLpro enzymatic activity (in words): in vitro enzymatic assay at the tested doses; for inhibition at 50 µM / inhibition at 100 µM: read-out: inhibition of 3CLpro enzymatic activity; for inhibition at 100 µM: 100 µM drug
[1] = dose-dependent study, 0.097656 uM, individual values
[2] = dose-dependent study, 0.097656 uM, individual values, read-out: % activity
[3] = dose-dependent study, 0.195313 uM, individual values
[4] = dose-dependent study, 0.390625 uM, individual values
[5] = dose-dependent study, 0.390625 uM, individual values, read-out: % activity
[6] = dose-dependent study, 0.78125 uM, individual values
[7] = dose-dependent study, 0.78125 uM, individual values, read-out: % activity
[8] = dose-dependent study, 1.5625 uM, individual values
[9] = dose-dependent study, 3.125 uM, individual values
[10] = dose-dependent study, 6.25 uM, individual values
[11] = dose-dependent study, 12.5 uM, individual values
[12] = dose-dependent study, 12.5 uM, individual values, read-out: % activity
[13] = dose-dependent study, 25 uM, individual values
[14] = dose-dependent study, 50 uM, individual values
[15] = dose-dependent study, 100 uM, individual values

For `Cc1cnc(C(=O)N[C@H]2CCCCC/C=C\[C@@H]3C[C@@]3(C(=O)NS(=O)(=O)C3CC3)NC(=O)[C@@H]3C[C@@H](Oc4nc5ccccc5c5ccccc45)CN3C2=O)cn1` [Paritaprevir], the “percent enzymatic activity, individual values” was 25.5475% and 31.3869% and 37.2263%, the “percent enzymatic activity, AVG” value was 31.3869% and the “% activity” value [1] was 101.809% and 115.049%. The activity at 0.097656 µM [2] was 101%, the “% activity” value [3] was 132.87% and 115.668% and the “% activity” value [4] was 114.628% and 102.678%. For the same compound, the activity at 0.390625 µM [5] was 113%, the “% activity” value [6] was 108.219% and 103.297% and the activity at 0.78125 µM [7] was 108%. The “% activity” value [8] was 121.853%, the activity at 1.5625 µM (dose-dependent study, 1.5625 uM, individual values, read-out: % activity) was 114% and the “% activity” value [9] was 108.712% and 136.698%. The “% activity” value [10] was 112.163% and 121.853%, the activity at 6.25 µM (dose-dependent study, 6.25 uM, individual values, read-out: % activity) was 112% and the “% activity” value [11] was 103.781% and 112.575%. The activity at 12.5 µM [12] was 102%, the “% activity” value [13] was 89.4838% and 96.4929% and the activity at 25 µM [13] was 91%. The “% activity” value [14] was 58.9163% and 64.3286%, the activity at 50 µM [14] was 61.4% and the “% activity” value [15] was 16.5163% and 15.0372% and 1.856%. The IC50 was 73.4 µM, the “inhibitory effect towards 3CLpro enzymatic activity (in words)” value was “partial inhibitory effect” and the inhibition at 50 µM was 70%. For the same compound, the inhibition at 100 µM was ~80%.
`CCC(CC)[C@H](NC(C)=O)[C@@H]1[C@H](O)[C@@H](C(=O)O)C[C@H]1N=C(N)N` [Peramivir] was tested, and the “percent enzymatic activity, individual values” was 99.7193% and 97.2053% and 109.775% and the “percent enzymatic activity, AVG” value was 102.233%.
`COC(=O)N[C@H](C(=O)N1CCC[C@H]1c1nc2cc([C@H]3CC[C@H](c4cc5nc([C@@H]6CCCN6C(=O)[C@@H](NC(=O)OC)[C@@H](C)OC)[nH]c5cc4F)N3c3cc(F)c(N4CCC(c5ccc(F)cc5)CC4)c(F)c3)c(F)cc2[nH]1)[C@@H](C)OC` [Pibrentasvir] was tested, and the “percent enzymatic activity, individual values” was 62.0438% and 66.4234% and 69.3431% and the “percent enzymatic activity, AVG” value was 65.9367%.
With `O=C(O)[C@H]1C2CCC(CC2)[C@@H]1Nc1nc(-c2c[nH]c3ncc(F)cc23)ncc1F` [Pimodivir] the “percent enzymatic activity, individual values” (listed as Pimodvir) was 92.1775% and 98.4623% and 116.898% and the “percent enzymatic activity, AVG” value was 102.513%.
For `Cc1cc(CCCOc2c(C)cc(-c3noc(C(F)(F)F)n3)cc2C)on1` [Pleconaril], the “percent enzymatic activity, individual values” was 89.2446% and 86.7306% and 85.4737% and the “percent enzymatic activity, AVG” value was 87.1496%.
For `CC[C@@H]([C@H](C)O)n1ncn(-c2ccc(N3CCN(c4ccc(OC[C@@H]5CO[C@@](Cn6cncn6)(c6ccc(F)cc6F)C5)cc4)CC3)cc2)c1=O` [Posaconazole], the “percent enzymatic activity, individual values” was 84.6282% and 81.1692% and the “percent enzymatic activity, AVG” value was 83.4752%.
In the case of `CCC(CC)COC(=O)[C@H](C)N[P@](=O)(OC[C@H]1O[C@@](C#N)(c2ccc3c(N)ncnn23)[C@H](O)[C@@H]1O)Oc1ccccc1` [Remdesivir], the “percent enzymatic activity, individual values” is reported as 83.5766% and 41.9708% and 50.7299% and the “percent enzymatic activity, AVG” value is reported as 58.7591%.
`NC[C@H]1O[C@H](O[C@H]2[C@H](O[C@@H]3O[C@H](CO)[C@@H](O)[C@H]3O)[C@@H](O)[C@H](N)C[C@@H]2N)[C@H](N)[C@@H](O)[C@@H]1O` [Ribostamycin] was tested, and the “percent enzymatic activity, individual values” was 96.7864% and 99.3003% and the “percent enzymatic activity, AVG” value was 98.4623%.
`CC(C)c1nc(CN(C)C(=O)N[C@H](C(=O)N[C@@H](Cc2ccccc2)C[C@H](O)[C@H](Cc2ccccc2)NC(=O)OCc2cncs2)C(C)C)cs1` [Ritonavir] was tested, and the “percent enzymatic activity, individual values” was 82.0276% and 87.5576% and 91.2442%, the “percent enzymatic activity, AVG” value was 86.9432% and the “inhibitory effect towards 3CLpro enzymatic activity (in words)” value was “did not exhibit any 3CLpro inhibitory activity”.
For `CC(C)(C)NC(=O)[C@@H]1C[C@@H]2CCCC[C@@H]2CN1C[C@@H](O)[C@H](Cc1ccccc1)NC(=O)[C@H](CC(N)=O)NC(=O)c1ccc2ccccc2n1` [Saquinavir], the “percent enzymatic activity, individual values” was 65.8986% and 67.2811% and 76.0369% and the “percent enzymatic activity, AVG” value was 69.7389%.
With `CC(C)OC(=O)[C@H](C)N[P@](=O)(OC[C@H]1O[C@@H](n2ccc(=O)[nH]c2=O)[C@](C)(F)[C@@H]1O)Oc1ccccc1` [Sofosbuvir] the “percent enzymatic activity, individual values” was 76.4977% and 78.341% and 81.5668% and the “percent enzymatic activity, AVG” value was 78.8018%.
`CCC[C@H](NC(=O)[C@@H]1[C@H]2CCC[C@H]2CN1C(=O)[C@@H](NC(=O)[C@@H](NC(=O)c1cnccn1)C1CCCCC1)C(C)(C)C)C(=O)C(=O)NC1CC1` [Telaprevir] was tested, and the “percent enzymatic activity, individual values” was 64.9635% and 42.7007% and 84.6715% and the “percent enzymatic activity, AVG” value was 64.1119%.
For `COc1cnc(-n2cnc(C)n2)c2[nH]cc(C(=O)C(=O)N3CCN(C(=O)c4ccccc4)CC3)c12` [Temsavir], the “percent enzymatic activity, individual values” was 93.8534% and 98.0433% and 100.976% and the “percent enzymatic activity, AVG” value was 97.6243%.
With `CCC[C@@]1(CCc2ccccc2)CC(O)=C([C@H](CC)c2cccc(NS(=O)(=O)c3ccc(C(F)(F)F)cn3)c2)C(=O)O1` [Tipranavir] the “percent enzymatic activity, individual values” was 30.4148% and 38.7097% and 37.3272%, the “percent enzymatic activity, AVG” value was 35.4839% and the “% activity” value [1] was 82.4284% (2×) and 99.6504%. The activity at 0.097656 µM [2] was 101%, the “% activity” value [3] was 93.9114% and 73.379% and 92.2647% and 99.6504% and the “% activity” value [4] was 86.3629% and 90.6909% and 88.1724%. For the same compound, the activity at 0.390625 µM [5] was 104%, the “% activity” value [6] was 90.2974% and 88.7236% and 98.607% and the activity at 0.78125 µM [7] was 109%. The “% activity” value [8] was 116.346% and 88.7236% and 94.6254%, the “% activity” value [9] was 93.8385% and 93.4451% and 104.346% and the activity at 3.125 µM (dose-dependent study, 3.125 uM, individual values, read-out: % activity) was 110%. For the same compound, the “% activity” value [10] was 117.389% and 86.7564% and 86.3629%, the “% activity” value [11] was 89.5105% and 88.3302% and 98.0853% and the activity at 12.5 µM [12] was 107%. For the same compound, the “% activity” value [13] was 75.6509% and 84.3957% and 93.4451% and 63.6511%, the “% activity” value [14] was 69.8379% and 61.9688% and 53.2165% and the activity at 50 µM [14] was 57.4%. The “% activity” value [15] was 47.9992% and 60.395% and 69.8379% and 42.7819%, the IC50 was 27.7 µM and the “inhibitory effect towards 3CLpro enzymatic activity (in words)” value was “partial inhibitory effect”. For the same compound, the inhibition at 50 µM was 64% and the inhibition at 100 µM was 50%.
In the case of `CCOC(=O)c1c(CSc2ccccc2)n(C)c2cc(Br)c(O)c(CN(C)C)c12` [Umifenovir], the “percent enzymatic activity, individual values” is reported as 80.6569% and 86.8613% and 87.2263% and the “percent enzymatic activity, AVG” value is reported as 84.9148%.
In the case of Candicidin, the “percent enzymatic activity, individual values” is reported as 86.2745% and 80.3922% and 82.3529% and the “percent enzymatic activity, AVG” value is reported as 83.0065%.
In the case of Maraviroc, the “percent enzymatic activity, individual values” is reported as 91.5462% and 88.779% and 142.739%.
